What is called pEC50 is the negative decadic logarithm of the EC50, by convention in mol/L.

Molecules are shown by their SMILES. pEC50: −log10 of the molar value. Like-named read-outs stand apart in the source and are kept apart here.

The target of this assay is T1, F508delCFTR (Homo sapiens, UniProt P13569, DEL508-508).
T1 construct: expressed in transfected cells; host or cells: CFBE41o- (human lung derived epithelial cell line), doxycycline-inducible expression
Nature of the assay: Cell Surface Expression-Horse Radish Peroxidase (CSE-HRP) assay. The class given is cell-based. The following applies: CFBE41o-F508delCFTR-HRP cells; for Maximum % activity (with co-corrector): with co-corrector (2 μM); for Maximum % activity (with co-corrector) / Maximum % activity (without co-corrector): normalized to on-plate positive control, highest concentration 20 μM. As for the experimental part:
Cell Surface Expression-Horse Radish Peroxidase (CSE-HRP) Assay
A cellular assay for measuring the F508delCFTR cell surface expression after correction with test compounds either without or with a co-corrector (2 μM of 3-[(2R,4R)-4-({[1-(2,2-difluoro-1,3-benzodioxol-5-yl)cyclopropyl]carbonyl}amino)-7-methoxy-3,4-dihydro-2H-chromen-2-yl]benzoic acid), was developed in human lung derived epithelial cell line (CFBE41o-) (Veit G et al, (2012) Mol Biol Cell. 23(21): 4188-4202). The development was achieved by expressing the F508delCFTR mutation along with a horseradish peroxidase (HRP) in the fourth exofacial loop, and then measuring the HRP activity using luminescence readout from these cells, CFBE41o-F508delCFTR-HRP, that were incubated overnight with the test corrector compounds, either without or with the co-corrector. For this primary assay, the CFBE41o-F508delCFTR-HRP cells were plated in 384-well plates (Greiner Bio-one; Cat 781080) at 4,000 cells/well along with 0.5 μg/mL doxycycline to induce the F508delCFTR-HRP expression and further incubated at 37° C., 5% CO2 for 72 hours. The test compounds were then added either without or with a co-corrector at the required concentrations and further incubated for 18-24 hours at 33° C. The highest concentration tested was 20 μM with an 8-point concentration response curve using a 3-fold dilution in both the test compound without or with the co-corrector. Three replicate plates were run to determine one EC50. All plates contained negative controls (dimethyl sulfoxide, DMSO) and positive control (2 μM of 3-[(2R,4R)-4-({[1-(2,2-difluoro-1,3-benzodioxol-5-yl)cyclopropyl]carbonyl}amino)-7-methoxy-3,4-dihydro-2H-chromen-2-yl]benzoic acid) as well as on-plate concentration response of the positive control. Post incubation, the plates were washed 5× times with Dulbecco's phosphate buffered saline (DPBS), followed by the addition of the HRP substrate, luminol (50 μL), and measuring the HRP activity using luminescence readout on EnVision® Multilabel Plate Reader (Perkin Elmer; product number 2104-0010). The raw counts from the experiment were analyzed using Accelrys® Assay Explorer v3.3.
Z′ greater than 0.5 was used as passing quality control criteria for the plates.
The Z′ is defined as: 1−[3*SDPositive Control+3*SDNegative Control/Absolute(MeanPositive Control−MeanNegative Control)] wherein “SD” is standard deviation.
The % activity measured at each of the 8 test concentrations of the test compound added either without or with a co-corrector (2 μM of 3-[(2R,4R)-4-({[1-(2,2-difluoro-1,3-benzodioxol-5-yl)cyclopropyl]carbonyl}amino)-7-methoxy-3,4-dihydro-2H-chromen-2-yl]benzoic acid) was normalized to the on-plate positive control using the following formulae: % activity(Test compound without co-corrector)=[(test compound without co-corrector response−DMSO response)/(positive control response−DMSO response)]*100 % activity(Test compound with co-corrector)=[(test compound with co-corrector response−DMSO response)/(positive control response−DMSO response)]*100
The maximum % activity achieved for the test compound either without or with a co-corrector at any tested concentration is presented in Table 1 along with the respective EC50's calculated using the following general sigmoidal curve with variable Hill slope equation (described as Model 42 in the Accelrys® Assay Explorer v3.3 software): y=(a−d)/(1+(x/c)^b)+d
General sigmoidal curve with concentration, response, top, bottom, EC50 and Hill slope. This model describes a sigmoidal curve with an adjustable baseline, a. The equation can be used to fit curves where response is either increasing or decreasing with respect to the independent variable, “x”. • “x” is a concentration of drug under test. • “y” is the response. • “a” is the maximum response, and “d” is the minimum response • “c” is the inflection point (EC50) for the curve. That is, “y” is halfway between the lower and upper asymptotes when x=c. “b” is the slope-factor or Hill coefficient. […]

The mark [1] stands for this setting: test compound without co-corrector, 18-24 hours at 33° C., read-out: EC50 (without co-corrector).
Setting [2] is: with co-corrector (2 μM of 3-[(2R,4R)-4-({[1-(2,2-difluoro-1,3-benzodioxol-5-yl)cyclopropyl]carbonyl}amino)-7-methoxy-3,4-dihydro-2H-chromen-2-yl]benzoic acid), read-out: EC50 (with co-corrector).

T1 sequence (P13569 with tags, fused parts or gaps DEL508-508): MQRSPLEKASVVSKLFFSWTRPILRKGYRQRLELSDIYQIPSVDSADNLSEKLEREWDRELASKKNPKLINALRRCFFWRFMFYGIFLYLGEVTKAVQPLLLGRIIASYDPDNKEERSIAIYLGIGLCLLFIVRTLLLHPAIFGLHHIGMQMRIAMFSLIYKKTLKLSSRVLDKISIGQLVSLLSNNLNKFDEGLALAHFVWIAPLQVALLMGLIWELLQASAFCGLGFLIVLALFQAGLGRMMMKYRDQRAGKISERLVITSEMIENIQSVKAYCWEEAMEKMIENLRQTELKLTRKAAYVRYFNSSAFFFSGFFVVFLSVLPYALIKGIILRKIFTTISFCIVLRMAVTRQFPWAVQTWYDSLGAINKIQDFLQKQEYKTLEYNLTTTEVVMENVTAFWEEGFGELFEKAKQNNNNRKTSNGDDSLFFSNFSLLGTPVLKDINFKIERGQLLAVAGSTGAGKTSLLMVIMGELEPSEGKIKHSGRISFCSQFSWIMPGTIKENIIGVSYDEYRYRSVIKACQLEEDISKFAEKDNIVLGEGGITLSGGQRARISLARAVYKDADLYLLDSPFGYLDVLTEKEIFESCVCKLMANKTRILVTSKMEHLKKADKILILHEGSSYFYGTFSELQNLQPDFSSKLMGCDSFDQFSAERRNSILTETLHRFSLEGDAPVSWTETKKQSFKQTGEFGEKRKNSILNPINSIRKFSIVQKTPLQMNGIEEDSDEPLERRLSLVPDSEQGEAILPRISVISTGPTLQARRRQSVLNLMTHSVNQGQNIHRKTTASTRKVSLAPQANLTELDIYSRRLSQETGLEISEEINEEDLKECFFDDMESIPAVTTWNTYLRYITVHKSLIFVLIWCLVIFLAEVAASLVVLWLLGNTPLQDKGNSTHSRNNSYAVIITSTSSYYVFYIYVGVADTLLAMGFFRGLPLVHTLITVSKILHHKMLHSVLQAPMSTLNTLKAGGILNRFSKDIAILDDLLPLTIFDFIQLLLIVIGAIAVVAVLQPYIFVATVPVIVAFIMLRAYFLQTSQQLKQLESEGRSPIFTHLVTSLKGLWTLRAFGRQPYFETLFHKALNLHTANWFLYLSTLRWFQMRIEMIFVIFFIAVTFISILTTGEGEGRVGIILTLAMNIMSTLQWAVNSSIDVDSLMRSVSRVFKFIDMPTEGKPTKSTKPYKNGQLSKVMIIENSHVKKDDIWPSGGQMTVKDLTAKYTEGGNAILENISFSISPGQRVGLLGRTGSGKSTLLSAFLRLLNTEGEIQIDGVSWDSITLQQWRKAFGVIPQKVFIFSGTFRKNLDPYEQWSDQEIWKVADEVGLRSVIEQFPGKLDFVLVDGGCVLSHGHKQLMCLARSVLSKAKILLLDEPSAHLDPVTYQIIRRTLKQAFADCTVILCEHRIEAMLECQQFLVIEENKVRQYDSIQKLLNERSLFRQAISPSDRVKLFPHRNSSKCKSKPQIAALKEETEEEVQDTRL

Consider `COc1ccc(C(F)(F)F)cc1CO[C@@H]1[C@@H](C(C)(C)C)[C@H](C(=O)O)N(C(=O)C2CCCCC2)[C@@H]1c1ccccc1` [Example 18, (2R,3S,4R,5R)-3-tert-butyl-1-(cyclohexanecarbonyl)-4-{[2-methoxy-5-(trifluoromethyl)phenyl]methoxy}-5-phenylpyrrolidine-2-carboxylic acid], for which the “Maximum % activity (with co-corrector)” value is “++ (≥150 and <350)”; the “Maximum % activity (without co-corrector)” value is recorded as “+ (<100)”. Further, under setting [1], the pEC50 was below 5.00. The pEC50 under setting [2] is 5.00 to 6.00.

Regarding `COc1ccc(C(F)(F)F)cc1CO[C@H]1[C@H](C(C)(C)C)[C@@H](C(=O)O)N(C(=O)C2CCCCC2)[C@H]1c1ccccc1` [Example 19, (2S,3R,4S,5S)-3-tert-butyl-1-(cyclohexanecarbonyl)-4-{[2-methoxy-5-(trifluoromethyl)phenyl]methoxy}-5-phenylpyrrolidine-2-carboxylic acid], the “Maximum % activity (with co-corrector)” value is “+++ (≥350)” and the “Maximum % activity (without co-corrector)” value is recorded as “+++ (≥200)”. Besides, the pEC50 under setting [1] was above 6.00. For the same molecule, the negative-log EC50 (pEC50) under setting [2] is above 6.00.

`COCCS(=O)(=O)NC(=O)[C@@H]1[C@@H](C(C)(C)C)[C@H](OCc2cc(C(F)(F)F)ccc2OC)[C@H](c2ccccc2)N1C(=O)C1CCCCC1` [Example 21, (2S,3R,4S,5S)-3-tert-butyl-1-(cyclohexanecarbonyl)-N-(2-methoxyethanesulfonyl)-4-{[2-methoxy-5-(trifluoromethyl)phenyl]methoxy}-5-phenylpyrrolidine-2-carboxamide]: the “Maximum % activity (with co-corrector)” value is “++ (≥150 and <350)”; the “Maximum % activity (without co-corrector)” value is “+ (<100)”. In addition, the pEC50 under setting [1] is below 5.00. In addition, the pEC50 under setting [2] was 5.00 to 6.00.

Regarding `COc1ccc(C(F)(F)F)cc1CO[C@H]1[C@H](C(C)(C)C)[C@@H](C(=O)NS(=O)(=O)C2(C)CC2)N(C(=O)C2CCCCC2)[C@H]1c1ccccc1` [Example 22, (2S,3R,4S,5S)-3-tert-butyl-1-(cyclohexanecarbonyl)-4-{[2-methoxy-5-(trifluoromethyl)phenyl]methoxy}-N-(1-methylcyclopropane-1-sulfonyl)-5-phenylpyrrolidine-2-carboxamide], the “Maximum % activity (with co-corrector)” value is listed as “+ (<150)” and the “Maximum % activity (without co-corrector)” value was “+ (<100)”. In addition, under setting [1], the negative-log EC50 (pEC50) is below 5.00. Besides, under setting [2], the pEC50 was below 5.00.

Regarding `COc1ccc(C(F)(F)F)cc1CO[C@H]1[C@H](C(C)(C)C)[C@@H](C(=O)NS(=O)(=O)C2CC2)N(C(=O)C2CCCCC2)[C@H]1c1ccccc1` [Example 23, (2S,3R,4S,5S)-3-tert-butyl-1-(cyclohexanecarbonyl)-N-(cyclopropanesulfonyl)-4-{[2-methoxy-5-(trifluoromethyl)phenyl]methoxy}-5-phenylpyrrolidine-2-carboxamide], the “Maximum % activity (with co-corrector)” value is “++ (≥150 and <350)”; the “Maximum % activity (without co-corrector)” value is “+ (<100)”. Further, the negative logarithm of the EC50 (pEC50) under setting [1] is below 5.00. The negative logarithm of the EC50 (pEC50) under setting [2] is 5.00 to 6.00.

As to `CCS(=O)(=O)NC(=O)[C@@H]1[C@@H](C(C)(C)C)[C@H](OCc2cc(C(F)(F)F)ccc2OC)[C@H](c2ccccc2)N1C(=O)C1CCCCC1` [Example 24, (2S,3R,4S,5S)-3-tert-butyl-1-(cyclohexanecarbonyl)-N-(ethanesulfonyl)-4-{[2-methoxy-5-(trifluoromethyl)phenyl]methoxy}-5-phenylpyrrolidine-2-carboxamide], the “Maximum % activity (with co-corrector)” value is “++ (≥150 and <350)”; the “Maximum % activity (without co-corrector)” value was “+ (<100)”. Besides, the pEC50 under setting [1] is below 5.00. Besides, the negative logarithm of the EC50 (pEC50) under setting [2] was 5.00 to 6.00.

Take `COc1ccc(C(F)(F)F)cc1CO[C@H]1[C@H](C(C)(C)C)[C@@H](C(=O)NS(=O)(=O)N(C)C)N(C(=O)C2CCCCC2)[C@H]1c1ccccc1` [Example 25, (2S,3R,4S,5S)-3-tert-butyl-1-(cyclohexanecarbonyl)-N-(dimethylsulfamoyl)-4-{[2-methoxy-5-(trifluoromethyl)phenyl]methoxy}-5-phenylpyrrolidine-2-carboxamide]: the “Maximum % activity (with co-corrector)” value was “++ (≥150 and <350)”; the “Maximum % activity (without co-corrector)” value is listed as “+ (<100)”. Also, the negative logarithm of the EC50 (pEC50) under setting [1] is below 5.00. Moreover, the pEC50 under setting [2] was 5.00 to 6.00.

On to `COc1ccc(C(F)(F)F)cc1CO[C@H]1[C@H](C(C)(C)C)[C@@H](C(=O)NS(C)(=O)=O)N(C(=O)C2CCCCC2)[C@H]1c1ccccc1` [Example 26, (2S,3R,4S,5S)-3-tert-butyl-1-(cyclohexanecarbonyl)-N-(methanesulfonyl)-4-{[2-methoxy-5-(trifluoromethyl)phenyl]methoxy}-5-phenylpyrrolidine-2-carboxamide], for which the “Maximum % activity (with co-corrector)” value is “++ (≥150 and <350)”; the “Maximum % activity (without co-corrector)” value was “+ (<100)”. In addition, the negative-log EC50 (pEC50) under setting [1] is 5.00 to 6.00. In addition, the pEC50 under setting [2] is 5.00 to 6.00.

As to `COc1ccc(C(F)(F)F)cc1CO[C@@H]1[C@@H](C(C)(C)C)[C@H](C(=O)O)N(C(=O)[C@H]2CCC[C@H](OC)C2)[C@@H]1c1ccccc1` [Example 27, (2R,3S,4R,5R)-3-tert-butyl-1-[(1S,3S)-3-methoxycyclohexane-1-carbonyl]-4-{[2-methoxy-5-(trifluoromethyl)phenyl]methoxy}-5-phenylpyrrolidine-2-carboxylic acid], the “Maximum % activity (with co-corrector)” value was “+++ (≥350)”; the “Maximum % activity (without co-corrector)” value was “++ (≥100 and <200)”. Besides, under setting [1], the pEC50 is 5.00 to 6.00. For the same molecule, the negative-log EC50 (pEC50) under setting [2] was above 6.00.

Take `CO[C@H]1CCC[C@H](C(=O)N2[C@H](c3ccccc3)[C@H](Oc3cc(C(F)(F)F)cc(C)n3)[C@@H](C(C)(C)C)[C@@H]2C(=O)O)C1` [Example 28, (2R,3S,4R,5R)-3-tert-butyl-1-[(1S,3S)-3-methoxycyclohexane-1-carbonyl]-4-{[6-methyl-4-(trifluoromethyl)pyridin-2-yl]oxy}-5-phenylpyrrolidine-2-carboxylic acid]: the “Maximum % activity (with co-corrector)” value is recorded as “+++ (≥350)”; the “Maximum % activity (without co-corrector)” value was “++ (≥100 and <200)”. Also, under setting [1], the negative-log EC50 (pEC50) was 5.00 to 6.00. The pEC50 under setting [2] is 5.00 to 6.00.

Regarding `COc1ccc(C(F)(F)F)cc1CO[C@H]1[C@H](C(C)(C)C)[C@@H](C(=O)O)N(C(=O)[C@H]2CCC[C@H](OC)C2)[C@H]1c1ccccc1` [Example 30, (2S,3R,4S,5S)-3-tert-butyl-1-[(1S,3S)-3-methoxycyclohexane-1-carbonyl]-4-{[2-methoxy-5-(trifluoromethyl)phenyl]methoxy}-5-phenylpyrrolidine-2-carboxylic acid], the “Maximum % activity (with co-corrector)” value is listed as “+++ (≥350)”; the “Maximum % activity (without co-corrector)” value is “++ (≥100 and <200)”. Further, the pEC50 under setting [1] was 5.00 to 6.00. The pEC50 under setting [2] was above 6.00.

(Values after patent US10399940B2, “Substituted pyrrolidines and methods of use” (AbbVie S.à.r.l., priority 2016, dated 2019).)
